# According to PMC12481576, “Barbituric Acid Derivatives as Covalent Inhibitors of Leishmania braziliensis Dihydroorotate Dehydrogenase” (Journal of Medicinal Chemistry, 2025):
# Test: Kinetic solubility assay in PBS pH 7.4
# Format: physicochemical
# Details: PBS pH 7.4, 200 μM test conc, 1% DMSO, 2 h at 25 °C
# Method: The plate was incubated for 2 h at 25 °C. The precipitates on the incubation plate were removed by filtration and the filtrates were quantified by LC-MS/MS. Calibration curves were prepared for each compound by using 5–6 points. Samples were analyzed by UV–vis.
# [1] = phosphate buffered saline, aqueous buffer, kinetic from dmso stock
SMILES,solubility kinetic at 2 h [1],solubility kinetic at 2 h
"O=C(O)Cc1ccccc1Nc1c(Cl)cccc1Cl [Diclofenac Sodium, reference compound]",200 µM,
"O=C(CCCN1CCC(O)(c2ccc(Cl)cc2)CC1)c1ccc(F)cc1 [Haloperidol, reference compound]",30.3 µM,
"CC/C(=C(/CC)c1ccc(O)cc1)c1ccc(O)cc1 [Diethylstilbesterol, reference compound]",,9.98 µM
